# Target: T1, cytoplasmic kinase domain of human Flt-3 (Homo sapiens, UniProt P36888)
# T1 construct: amino acids 563-993 of the cytoplasmic kinase domain of human Flt-3; made in house; host or cells: Sf9 insect cells (baculovirus, donor vector pFbacG01)
# T1 sequence (P36888 563-993): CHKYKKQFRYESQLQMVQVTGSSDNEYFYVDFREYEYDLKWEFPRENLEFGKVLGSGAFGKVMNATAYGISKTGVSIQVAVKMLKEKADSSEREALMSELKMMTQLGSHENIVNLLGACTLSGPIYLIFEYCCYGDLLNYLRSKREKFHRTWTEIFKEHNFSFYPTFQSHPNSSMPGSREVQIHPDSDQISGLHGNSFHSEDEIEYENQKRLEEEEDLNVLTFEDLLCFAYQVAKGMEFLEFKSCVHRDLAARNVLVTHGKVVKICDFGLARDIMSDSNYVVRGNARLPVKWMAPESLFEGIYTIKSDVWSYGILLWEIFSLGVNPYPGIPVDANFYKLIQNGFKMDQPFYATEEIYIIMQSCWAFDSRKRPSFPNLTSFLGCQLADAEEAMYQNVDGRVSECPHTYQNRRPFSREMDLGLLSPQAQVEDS
# Assay: Flt3 kinase inhibition, GST-Flt-3 filter binding assay
# Type: biochemical
# Settings: % inhibition at 10 μM
# Experimental: Flt3 kinase inhibition is determined as follows: The baculovirus donor vector pFbacG01 (GIBCO) is used to generate a recombinant baculovirus expressing the amino acid region amino acids 563-993 of the cytoplasmic kinase domain of human Flt-3. The coding sequence for the cytoplasmic domain of Flt-3 is amplified by PCR from human c-DNA libraries (Clontech). The amplified DNA fragments and the pFbacG01 vector are made compatible for ligation by digestion with BamH1 and HindIII. Ligation of these DNA fragments results in the baculovirus donor plasmid Flt-3(1.1). The production of the viruses, the expression of proteins in Sf9 cells and the purification of the GST-fused proteins are performed as follows:
# Production of virus: Transfer vector (pFbacG01-Flt-3) containing the Flt-3 kinase domain is transfected into the DH10Bac cell line (GIBCO) and the transfected cells are plated on selective agar plates. Colonies without insertion of the fusion sequence into the viral genome (carried by the bacteria) are blue. Single white colonies are picked and viral DNA (bacmid) is isolated from the bacteria by standard plasmid purification procedures. Sf9 or Sf21 cells (American Type Culture Collection) are then transfected in flasks with the viral DNA using Cellfectin reagent. Determination of small scale protein expression in Sf9 cells: Virus containing media is collected from the transfected cell culture and used for infection to increase its titre. Virus containing media obtained after two rounds of infection is used for large-scale protein expression. For large-scale protein expression 100 cm^2 round tissue culture plates are seeded with 5×10^7 cells/plate and infected with 1 mL of virus-containing media (approx. 5 MOIs). After 3 days the cells are scraped off the plate and centrifuged at 500 rpm for 5 min. Cell pellets from 10-20, 100 cm^2 plates, are resuspended in 50 mL of ice-cold lysis buffer (25 mMTris-HCl, pH 7.5, 2 mM EDTA, 1% NP-40, 1 mM DTT, 1 mM PMSF). The cells are stirred on ice for 15 min and then centrifuged at 5000 rpms for 20 min. Purification of GST-tagged proteins: The centrifuged cell lysate is loaded onto a 2 mL glutathione-sepharose column (Pharmacia) and washed three times with 10 mL of 25 mM Tris-HCl, pH 7.5, 2 mM EDTA, 1 mM DTT, 200 mM NaCl. The GST-tagged protein is then eluted by 10 applications (1 mL each) of 25 mM Tris-HCl, pH 7.5, 10 mM reduced-glutathione, 100 mM NaCl, 1 mM DTT, 10% Glycerol and stored at −70° C. Measurement of enzyme activity: Tyrosine protein kinase assays with purified GST-Flt-3 are carried out in a final volume of 30 μL containing 200-1800 ng of enzyme protein (depending on the specific activity), 20 mM Tris-HCl, pH 7.6, 3 mM MnCl2, 3 mM MgCl2, 1 mM DTT, 10 μM Na3VO4, 3 μg/mL poly(Glu,Tyr) 4:1, 1% DMSO, 8.0 μM ATP and 0.1 μCi [γ^33 P] ATP). The activity is assayed in the presence or absence of inhibitors, by measuring the incorporation of ^33P from [γ^33P] ATP into the poly(Glu,Tyr) substrate. The assay (30 μL) is carried out in 96-well plates at ambient temperature for 20 min under conditions described below and terminated by the addition of 20 μL of 125 mM EDTA. Subsequently, 40 μL of the reaction mixture is transferred onto Immobilon-PVDF membrane (Millipore, Bedford, Mass., USA) previously soaked for 5 min with methanol, rinsed with water, then soaked for 5 min with 0.5% H3PO4 and mounted on vacuum manifold with disconnected vacuum source. After spotting all samples, vacuum is connected and each well rinsed with 200 μL 0.5% H3PO4. Membranes are removed and washed 4× on a shaker with 1.0% H3PO4, once with ethanol. Membranes are counted after drying at ambient temperature, mounting in Packard TopCount 96-well frame, and addition of 10 μL/well of Microscint™ (Packard). IC50 values are calculated by linear regression analysis of the percentage inhibition of each compound in duplicate, at four concentrations (usually 0.01, 0.1,1 and 10 μM). […]
row,Flt3 (% at 10 μM),Compound
1,95%,CCc1ccc(NC(=O)Nc2ccc(Cc3ccncc3)cc2)cc1 [Example 13]
2,89%,Cc1ccc(NC(=O)Nc2ccc(Cc3ccncc3)cc2)cc1 [Example 14]
3,96%,O=C(Nc1ccc(Cc2ccncc2)cc1)Nc1cccc(C(F)(F)F)c1 [Example 15]
4,94%,"CCc1ccc(NC(=O)Cc2ccc(Oc3ccncc3)cc2)cc1 [Example 16, N-(4-pyridin-4-yl-oxy-phenyl)acetyl-(4-ethyl-phenyl)-amide]"
5,92%,Cc1ccc(NC(=O)Cc2ccc(Oc3ccncc3)cc2)cc1 [Example 17]
6,88%,CCCc1ccc(NC(=O)Cc2ccc(Oc3ccncc3)cc2)cc1 [Example 18]
7,63%,"O=C(Nc1cccc(C(F)(F)F)c1)N1CCc2cc(Oc3ccncc3)ccc21 [Example 19, 5(4-pyridyloxy)-N-(3-trifluoromethyl-phenyl)amino-carbonyl-2,3-dihydroindole]"
8,69%,O=C(Nc1cccc(C(F)(F)F)c1)N1CCCc2cc(Oc3ccncc3)ccc21 [Example 20]
9,94%,"O=C(Nc1ccc(Oc2cc(Cl)ncn2)cc1)Nc1cccc(C(F)(F)F)c1 [Example 21, N-(4-(6-Chloropyrimidin-4-yl)-oxyphenyl)-N′-(3-trifluoromethylphenyl)-urea]"
10,100%,Cc1cc(Oc2ccc(NC(=O)Nc3cccc(C(F)(F)F)c3)cc2)ccn1 [Example 30]
11,100%,O=C(Nc1ccc(Oc2cc(Nc3ccc(O)cc3)ncn2)cc1)Nc1ccc(OCC(F)(F)F)c(C(F)(F)F)c1 [Example 32]

# Continued, compound first:
row,Compound,Flt3 (% at 10 μM)
1,Cc1ccc(NC(=O)Nc2ccc(Oc3ccncc3)cc2)cc1 [Example 4],98%
2,CCc1ccc(NC(=O)N(C)c2ccc(Oc3ccncc3)cc2)cc1 [Example 5],64%
3,CN(C(=O)Nc1cccc(C(F)(F)F)c1)c1ccc(Oc2ccncc2)cc1 [Example 6],87%
4,CCCc1ccc(NC(=O)N(C)c2ccc(Oc3ccncc3)cc2)cc1 [Example 7],67%
5,Cc1ccc(NC(=O)N(C)c2ccc(Oc3ccncc3)cc2)cc1 [Example 8],57%
6,O=C(Nc1ccc(Oc2ccncc2)cc1)Nc1ccc(Br)c(C(F)(F)F)c1 [Example 9],90%
7,O=C(Nc1ccc(Oc2ccncc2)cc1)Nc1ccc(OCC(F)(F)F)c(C(F)(F)F)c1 [Example 10],100%
8,COc1cc(NC(=O)Nc2ccc(Oc3ccncc3)cc2)cc(C(F)(F)F)c1 [Example 11],100%
9,CCCc1ccc(NC(=O)Nc2ccc(Cc3ccncc3)cc2)cc1 [Example 12],92%

# — patent US7652022B2, “Diaryl urea derivatives useful for the treatment of protein kinase dependent diseases” (Novartis AG, priority 2002, dated 2010)
